Test results as given in patent publication US9388179B2, “N-substituted indazole sulfonamide compounds with selective activity in voltage-gated sodium channels” (Merck Sharp & Dohme Corp., priority 2012, dated 2016).

Assays:
[1] = molecular target: T1, human Nav1.5 channels stably expressed in HEK 293 cells (Homo sapiens, UniProt Q14524); test: PatchXpress 7000 automated patch-clamp, inactivated state block; format: cell-based; conditions: PatchXpress technique
T1 construct: expressed in transfected cells; host or cells: HEK 293
T1 sequence (Q14524 whole entry): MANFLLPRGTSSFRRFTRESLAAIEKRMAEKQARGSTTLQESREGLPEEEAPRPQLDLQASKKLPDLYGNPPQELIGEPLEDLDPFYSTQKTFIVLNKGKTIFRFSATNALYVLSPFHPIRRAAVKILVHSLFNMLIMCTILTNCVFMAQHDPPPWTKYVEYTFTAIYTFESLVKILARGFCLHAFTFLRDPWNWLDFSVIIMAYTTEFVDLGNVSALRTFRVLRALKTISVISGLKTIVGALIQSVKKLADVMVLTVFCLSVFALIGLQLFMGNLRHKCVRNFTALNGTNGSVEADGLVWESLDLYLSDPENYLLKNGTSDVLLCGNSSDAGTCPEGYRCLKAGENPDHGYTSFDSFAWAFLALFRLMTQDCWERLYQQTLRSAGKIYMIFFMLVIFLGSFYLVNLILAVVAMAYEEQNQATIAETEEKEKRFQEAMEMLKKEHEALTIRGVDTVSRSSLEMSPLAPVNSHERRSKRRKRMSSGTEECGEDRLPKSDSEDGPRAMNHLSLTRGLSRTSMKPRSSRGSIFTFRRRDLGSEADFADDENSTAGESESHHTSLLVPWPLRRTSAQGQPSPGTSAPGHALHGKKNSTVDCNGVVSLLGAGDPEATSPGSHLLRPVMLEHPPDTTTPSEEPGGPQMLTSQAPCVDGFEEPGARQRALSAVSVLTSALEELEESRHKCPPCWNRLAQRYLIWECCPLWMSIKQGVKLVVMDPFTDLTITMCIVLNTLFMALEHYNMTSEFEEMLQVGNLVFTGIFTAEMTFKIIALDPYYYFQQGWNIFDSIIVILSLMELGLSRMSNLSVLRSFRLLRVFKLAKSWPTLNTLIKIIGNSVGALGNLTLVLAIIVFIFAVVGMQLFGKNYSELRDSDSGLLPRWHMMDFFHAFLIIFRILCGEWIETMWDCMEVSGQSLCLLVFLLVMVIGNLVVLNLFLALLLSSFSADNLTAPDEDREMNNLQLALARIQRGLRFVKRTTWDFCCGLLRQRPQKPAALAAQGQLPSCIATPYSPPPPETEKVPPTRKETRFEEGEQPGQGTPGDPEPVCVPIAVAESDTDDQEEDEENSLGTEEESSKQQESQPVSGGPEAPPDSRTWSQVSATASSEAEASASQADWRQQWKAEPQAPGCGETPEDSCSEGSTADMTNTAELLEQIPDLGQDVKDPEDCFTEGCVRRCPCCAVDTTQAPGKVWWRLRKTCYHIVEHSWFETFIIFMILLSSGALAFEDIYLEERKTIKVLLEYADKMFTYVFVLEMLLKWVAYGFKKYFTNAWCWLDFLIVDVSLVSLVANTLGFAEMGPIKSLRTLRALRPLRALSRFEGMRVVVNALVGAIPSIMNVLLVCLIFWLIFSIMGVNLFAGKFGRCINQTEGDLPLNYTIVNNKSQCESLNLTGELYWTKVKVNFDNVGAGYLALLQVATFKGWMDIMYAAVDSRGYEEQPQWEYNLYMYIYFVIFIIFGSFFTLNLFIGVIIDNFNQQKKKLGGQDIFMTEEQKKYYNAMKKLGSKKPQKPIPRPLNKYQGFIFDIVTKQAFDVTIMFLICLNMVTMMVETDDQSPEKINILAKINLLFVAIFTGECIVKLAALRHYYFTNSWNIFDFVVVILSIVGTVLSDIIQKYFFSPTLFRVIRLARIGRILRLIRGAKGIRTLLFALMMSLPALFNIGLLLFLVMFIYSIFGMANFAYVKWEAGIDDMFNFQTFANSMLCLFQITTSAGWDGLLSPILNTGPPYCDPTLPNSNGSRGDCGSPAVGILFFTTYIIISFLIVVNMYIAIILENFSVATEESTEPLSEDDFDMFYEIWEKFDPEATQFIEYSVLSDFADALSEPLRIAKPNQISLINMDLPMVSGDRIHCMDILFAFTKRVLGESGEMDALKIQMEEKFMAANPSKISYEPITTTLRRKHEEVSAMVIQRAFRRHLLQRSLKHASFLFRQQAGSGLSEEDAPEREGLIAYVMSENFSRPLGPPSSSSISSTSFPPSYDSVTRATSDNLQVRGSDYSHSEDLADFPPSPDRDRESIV
Experimental: (§1) For all electrophysiology experiments, offline analysis was used to correct for current rundown and to determine percent inhibition as a function of drug concentration. IC50 values were determined by fitting to the Hill equation.
(§2) Sodium Current Measurements on the PatchXpress 7000®:
(§3) To measure inactivated state block of sodium channels, test compounds were characterized in an automated PatchXpress® assay (Molecular Devices) using a double-pulse protocol on human Nav1.7 and Nav1.5 channels stably expressed in HEK 293 cells. Cells were held at a potential 20 mV negative to V0.5 inact. An 8000 ms pre-pulse 7 mV positive to V0.5 inact was given followed by a hyperpolarizing 2 ms pulse to −120 mV and a 20 ms test pulse to −20 mV. Protocol was applied to cells in the absence, presence of compound and after washout. The temperature of PatchXpress instruments was maintained at 22° C. The following recording solutions were used. Internal solution (mM): 30 CsCl, 5 HEPES, 10 EGTA, 120 CsF, 5 NaF, 2 MgCl2. External solution (mM): 120 NMDG, 40 NaCl, 1 KCl, 0.5 MgCl2, 5 HEPES, 2.7 CaCl2.

[2] = molecular target: T2, human Nav1.7 channels stably expressed in HEK 293 cells (Homo sapiens, UniProt Q15858); test: as above; format: cell-based; conditions: PatchXpress technique; read-out: Nav 1.7 potency
T2 construct: expressed in transfected cells; host or cells: HEK 293
T2 sequence (Q15858 whole entry): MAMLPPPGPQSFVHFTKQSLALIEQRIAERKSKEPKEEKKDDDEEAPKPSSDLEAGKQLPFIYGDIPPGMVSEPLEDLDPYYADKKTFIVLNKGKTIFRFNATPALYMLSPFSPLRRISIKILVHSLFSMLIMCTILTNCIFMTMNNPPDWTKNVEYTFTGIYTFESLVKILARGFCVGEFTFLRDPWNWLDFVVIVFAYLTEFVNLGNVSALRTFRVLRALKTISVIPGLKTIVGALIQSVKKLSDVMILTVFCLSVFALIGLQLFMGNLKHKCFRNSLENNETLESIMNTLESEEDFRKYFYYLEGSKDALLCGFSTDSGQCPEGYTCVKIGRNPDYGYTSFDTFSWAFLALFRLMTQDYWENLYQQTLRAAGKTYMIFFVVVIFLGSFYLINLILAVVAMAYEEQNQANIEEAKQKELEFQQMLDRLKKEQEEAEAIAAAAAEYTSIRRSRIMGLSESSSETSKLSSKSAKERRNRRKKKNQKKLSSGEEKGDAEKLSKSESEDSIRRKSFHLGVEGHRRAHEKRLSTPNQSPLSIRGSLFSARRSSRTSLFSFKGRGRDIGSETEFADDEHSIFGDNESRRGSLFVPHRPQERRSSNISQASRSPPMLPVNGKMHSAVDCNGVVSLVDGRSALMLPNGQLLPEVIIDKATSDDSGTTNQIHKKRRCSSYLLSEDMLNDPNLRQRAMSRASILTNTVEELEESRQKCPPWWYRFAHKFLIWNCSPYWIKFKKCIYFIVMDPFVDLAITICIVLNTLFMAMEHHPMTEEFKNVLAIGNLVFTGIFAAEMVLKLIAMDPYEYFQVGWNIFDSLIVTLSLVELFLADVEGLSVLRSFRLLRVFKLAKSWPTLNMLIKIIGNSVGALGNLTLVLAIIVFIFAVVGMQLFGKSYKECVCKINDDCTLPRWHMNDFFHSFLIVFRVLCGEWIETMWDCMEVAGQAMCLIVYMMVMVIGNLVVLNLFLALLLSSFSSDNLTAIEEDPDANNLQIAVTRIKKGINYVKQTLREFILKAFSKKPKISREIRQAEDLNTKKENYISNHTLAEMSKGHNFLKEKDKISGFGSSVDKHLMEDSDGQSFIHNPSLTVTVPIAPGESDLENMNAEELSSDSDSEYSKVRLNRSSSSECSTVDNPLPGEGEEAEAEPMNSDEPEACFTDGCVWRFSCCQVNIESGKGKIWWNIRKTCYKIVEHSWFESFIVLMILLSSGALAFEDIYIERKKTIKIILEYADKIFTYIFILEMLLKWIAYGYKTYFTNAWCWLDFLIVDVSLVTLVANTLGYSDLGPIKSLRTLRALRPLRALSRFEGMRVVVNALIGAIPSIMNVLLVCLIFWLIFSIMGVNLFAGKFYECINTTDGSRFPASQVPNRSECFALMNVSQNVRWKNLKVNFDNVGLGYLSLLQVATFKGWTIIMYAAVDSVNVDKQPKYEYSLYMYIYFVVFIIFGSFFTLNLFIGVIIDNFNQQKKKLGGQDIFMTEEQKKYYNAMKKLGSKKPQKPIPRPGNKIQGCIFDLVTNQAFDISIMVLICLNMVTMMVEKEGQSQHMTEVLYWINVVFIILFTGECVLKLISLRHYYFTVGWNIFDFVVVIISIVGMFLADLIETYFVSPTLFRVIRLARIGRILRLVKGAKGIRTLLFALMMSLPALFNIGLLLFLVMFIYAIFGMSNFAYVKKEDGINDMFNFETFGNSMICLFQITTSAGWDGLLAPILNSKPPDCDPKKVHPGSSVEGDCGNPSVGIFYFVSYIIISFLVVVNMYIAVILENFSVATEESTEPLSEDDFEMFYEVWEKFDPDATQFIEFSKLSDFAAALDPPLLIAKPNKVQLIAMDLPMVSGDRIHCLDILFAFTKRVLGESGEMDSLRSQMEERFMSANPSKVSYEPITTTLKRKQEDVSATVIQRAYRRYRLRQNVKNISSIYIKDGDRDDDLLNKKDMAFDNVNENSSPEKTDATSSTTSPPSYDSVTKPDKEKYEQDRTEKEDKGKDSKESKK
Experimental: as §1, §2, §3

| Structure (SMILES) | Ratio 1.5:1.7 = Nav 1.5 potency (nM)/Nav1.7 potency (nM) [1] | IC50 [2] |
| --- | --- | --- |
| NCCCc1ccccc1Cn1ncc2cc(S(=O)(=O)Nc3nccs3)c(F)cc21 [Ex-27, 1-[2-(3-aminopropyl)benzyl]-6-fluoro-N-1,3-thiazol-2-yl-1H-indazole-5-sulfonamide] | 48 | 5 nM |
| C[C@H](c1ccccc1CCCN)n1ncc2cc(S(=O)(=O)Nc3cccc(F)n3)c(F)cc21 [Ex-33, 1-{(1R)-1-[2-(3-amino-propyl)phenyl]ethyl}-6-fluoro-N-(6-fluoropyridin-2-yl)-1H-indazole-5-sulfonamide] | 228 | 381 nM |
| C[C@H](c1ccccc1C#C[C@@H]1CCCC[C@@H]1N)n1ncc2cc(S(=O)(=O)Nc3cccc(F)n3)c(F)cc21 [Ex-47, 1-[(1R)-1-(2-{[(1S,2S)-2-amino-cyclohexyl]ethynyl}phenyl)ethyl]-6-fluoro-N-(6-fluoropyridin-2-yl)-1H-indazole-5-sulfonamide] | 15 | 546 nM |
| C[C@H](c1cccc2c1CNCC2)n1cc2cc(S(=O)(=O)Nc3ncc(Cl)s3)c(F)cc2n1 [Ex-55, N-(5-chloro-1,3-thiazol-2-yl)-6-fluoro-2-[(1R)-1-(1,2,3,4-tetrahydro-isoquinolin-8-yl)ethyl]-2H-indazole-5-sulfonamide] | 152 | 111 nM |
| C[C@H](c1ccccc1C1CCNCC1)n1ncc2cc(S(=O)(=O)Nc3cccc(F)n3)c(F)cc21 [Ex-43, 6-fluoro-N-(6-fluoropyridin-2-yl)-1-[(1R)-1-(2-piperidin-4-ylphenyl)ethyl]-1H-indazole-5-sulfonamide] | 16 | 584 nM |
| Cc1cc2c(cnn2[C@H](C)c2cccc3c2CNCC3)cc1S(=O)(=O)Nc1cccc(F)n1 [Ex-60, N-(6-fluoropyridin-2-yl)-6-methyl-1-[(1R)-1-(1,2,3,4-tetrahydroisoquinolin-8-yl)ethyl]-1H-indazole-5-sulfonamide] | 457 | 58 nM |
| NCC#Cc1ccccc1Cn1ncc2cc(S(=O)(=O)Nc3nccs3)c(F)cc21 [Ex-29, 1-[2-(3-aminoprop-1-yn-1-yl)benzyl]-6-fluoro-N-1,3-thiazol-2-yl-1H-indazole-5-sulfonamide] | 302 | 89 nM |
| C[C@H](c1cccc2c1CNCC2)n1ncc2cc(S(=O)(=O)Nc3nccs3)c(F)cc21 [Ex-28, 6-fluoro-1-[(1R)-1-(1,2,3,4-tetrahydroisoquinolin-8-yl)ethyl]-N-1,3-thiazol-2-yl-1H-indazole-5-sulfonamide] | 870 | 25 nM |
| Cc1cc2c(cnn2Cc2cccc3c2CC(N)CC3)cc1S(=O)(=O)Nc1cccc(F)n1 (stereo not drawn) [Ex-61, 1-[(7-amino-5,6,7,8-tetrahydronaphthalen-1-yl)methyl]-N-(6-fluoropyridin-2-yl)-6-methyl-1H-indazole-5-sulfonamide] | 171 | 61 nM |
| NCc1ccccc1Cn1ncc2cc(S(=O)(=O)Nc3cccc(F)n3)c(F)cc21 [Ex-35, 1-[2-(aminomethyl)benzyl]-6-fluoro-N-(6-fluoropyridin-2-yl)-1H-indazole-5-sulfonamide] | 53 | 568 nM |
| O=S(=O)(Nc1cccc(F)n1)c1cc2cnn(Cc3cccc4c3CNC4)c2cc1F [Ex-42, 1-(2,3-dihydro-1H-isoindol-4-ylmethyl)-6-fluoro-N-(6-fluoropyridin-2-yl)-1H-indazole-5-sulfonamide] | 36 | 825 nM |
| NCCCc1ccccc1Cn1ncc2cc(S(=O)(=O)Nc3cccc(F)n3)c(F)cc21 [Ex-32, 1-[2-(3-amino-propyl)benzyl]-6-fluoro-N-(6-fluoropyridin-2-yl)-1H-indazole-5-sulfonamide] | 50 | 64 nM |
| NC1CCc2cccc(Cn3ncc4cc(S(=O)(=O)Nc5cccc(F)n5)c(F)cc43)c2C1 (single isomer, unassigned) [Ex-31, (R or S)-1-[(7-amino-5,6,7,8-tetrahydronaphthalen-1-yl)methyl]-6-fluoro-N-(6-fluoropyridin-2-yl)-1H-indazole-5-sulfonamide] | 772 | 56 nM |
| NC1Cc2cccc(Cn3ncc4cc(S(=O)(=O)Nc5cccc(F)n5)c(F)cc43)c2C1 (stereo not drawn) [Ex-39, 1-[(2-amino-2,3-dihydro-1H-inden-4-yl)methyl]-6-fluoro-N-(6-fluoropyridin-2-yl)-1H-indazole-5-sulfonamide] | 129 | 232 nM |
| C[C@H](c1ccccc1C1=CCNCC1)n1ncc2cc(S(=O)(=O)Nc3cccc(F)n3)c(F)cc21 [Ex-48, 6-fluoro-N-(6-fluoropyridin-2-yl)-1-{(1R)-1-[2-(1,2,3,6-tetrahydropyridin-4-yl)phenyl]ethyl}-1H-indazole-5-sulfonamide] | 5 | 1120 nM |
| C[C@H](c1ccccc1C#C[C@H]1CCCC[C@H]1N)n1ncc2cc(S(=O)(=O)Nc3cccc(F)n3)c(F)cc21 [Ex-50, 1-[(1R)-1-(2-{[(1R,2R)-2-amino-cyclohexyl]ethynyl}phenyl)ethyl]-6-fluoro-N-(6-fluoropyridin-2-yl)-1H-indazole-5-sulfonamide] | 17 | 689 nM |
| C[C@H](c1ccccc1C#CCN)n1ncc2cc(S(=O)(=O)Nc3ncc(Cl)s3)c(F)cc21 [Ex-56, 1-{(1R)-1-[2-(3-aminoprop-1-yn-1-yl)phenyl]ethyl}-N-(5-chloro-1,3-thiazol-2-yl)-6-fluoro-1H-indazole-5-sulfonamide] | 39 | 244 nM |
| Cc1cc2c(cnn2Cc2cccc3c2CC(N)CC3)cc1S(=O)(=O)Nc1nccs1 (stereo not drawn) [Ex-62, 1-[(7-amino-5,6,7,8-tetrahydronaphthalen-1-yl)methyl]-6-methyl-N-1,3-thiazol-2-yl-1H-indazole-5-sulfonamide] | 762 | 23 nM |
| NCC(F)c1ccccc1Cn1ncc2cc(S(=O)(=O)Nc3cccc(F)n3)c(F)cc21 (stereo not drawn) [Ex-38, 1-[2-(2-amino-1-fluoroethyl)benzyl]-6-fluoro-N-(6-fluoropyridin-2-yl)-1H-indazole-5-sulfonamide] | 162 | 185 nM |
| C[C@H](c1ccccc1C1CNC1)n1ncc2cc(S(=O)(=O)Nc3cccc(F)n3)c(F)cc21 [Ex-40, 1-[(1R)-1-(2-azetidin-3-ylphenyl)ethyl]-6-fluoro-N-(6-fluoropyridin-2-yl)-1H-indazole-5-sulfonamide] | 11 | 775 nM |
| O=S(=O)(Nc1cccc(F)n1)c1cc2cnn(Cc3ccccc3I)c2cc1F [Ex-41, 6-fluoro-N-(6-fluoropyridin-2-yl)-1-(2-iodobenzyl)-1H-indazole-5-sulfonamide] | 7 | 1070 nM |
| C[C@H](c1ccccc1C#CCN)n1ncc2cc(S(=O)(=O)Nc3cccc(F)n3)c(F)cc21 [Ex-46, 1-{(1R)-1-[2-(3-aminoprop-1-yn-1-yl)phenyl]ethyl}-6-fluoro-N-(6-fluoropyridin-2-yl)-1H-indazole-5-sulfonamide] | 41 | 423 nM |
| NCC#Cc1ccccc1Cn1ncc2cc(S(=O)(=O)Nc3cccc(F)n3)c(F)cc21 [Ex-44, 1-[2-(3-aminoprop-1-yn-1-yl)benzyl]-6-fluoro-N-(6-fluoropyridin-2-yl)-1H-indazole-5-sulfonamide] | 10 | 2530 nM |
| O=S(=O)(Nc1cccc(F)n1)c1cc2cnn(Cc3cccc4c3CNCC4F)c2cc1F (stereo not drawn) [Ex-49, 6-fluoro-N-(6-fluoropyridin-2-yl)-1-[(4-fluoro-1,2,3,4-tetrahydro-isoquinolin-8-yl)methyl]-1H-indazole-5-sulfonamide] | 45 | 661 nM |
| CC(C)(N)CC#Cc1ccccc1Cn1ncc2cc(S(=O)(=O)Nc3cccc(F)n3)c(F)cc21 [Ex-45, 1-[2-(4-amino-4-methylpent-1-yn-1-yl)benzyl]-6-fluoro-N-(6-fluoropyridin-2-yl)-1H-indazole-5-sulfonamide] | 18 | 2040 nM |
| NC1CCc2cccc(Cn3ncc4cc(S(=O)(=O)Nc5ncc(Cl)s5)c(F)cc43)c2C1 (stereo not drawn) [Ex-53, 1-[(7-amino-5,6,7,8-tetrahydronaphthalen-1-yl)methyl]-N-(5-chloro-1,3-thiazol-2-yl)-6-fluoro-1H-indazole-5-sulfonamide] | 1193 | 8 nM |
| O=S(=O)(Nc1nccs1)c1cc2cnn(Cc3ccccc3C3=CCNCC3)c2cc1F [Ex-30, 6-fluoro-1-[2-(1,2,3,6-tetrahydropyridin-4-yl)benzyl]-N-1,3-thiazol-2-yl-1H-indazole-5-sulfonamide] | 326 | 82 nM |
